Results reported in patent US4349625A, “Method for assaying fatty acids” (Mitsubishi Chemical Industries Limited, priority 1979, dated 1982).
Structures can show the parent of a compound that is named as a salt.

What was measured:
Type in all cases: biochemical
[1] = biological target: T1, FFA-albumin linkage in human serum (Homo sapiens, UniProt P02768); test: Example 2: enzymatic assay of FFA in human serum samples (Procedure A) with dissociating agent
T1 construct: were replaced by human serum samples; from tissue; host or cells: human serum
T1 sequence (P02768 25-609): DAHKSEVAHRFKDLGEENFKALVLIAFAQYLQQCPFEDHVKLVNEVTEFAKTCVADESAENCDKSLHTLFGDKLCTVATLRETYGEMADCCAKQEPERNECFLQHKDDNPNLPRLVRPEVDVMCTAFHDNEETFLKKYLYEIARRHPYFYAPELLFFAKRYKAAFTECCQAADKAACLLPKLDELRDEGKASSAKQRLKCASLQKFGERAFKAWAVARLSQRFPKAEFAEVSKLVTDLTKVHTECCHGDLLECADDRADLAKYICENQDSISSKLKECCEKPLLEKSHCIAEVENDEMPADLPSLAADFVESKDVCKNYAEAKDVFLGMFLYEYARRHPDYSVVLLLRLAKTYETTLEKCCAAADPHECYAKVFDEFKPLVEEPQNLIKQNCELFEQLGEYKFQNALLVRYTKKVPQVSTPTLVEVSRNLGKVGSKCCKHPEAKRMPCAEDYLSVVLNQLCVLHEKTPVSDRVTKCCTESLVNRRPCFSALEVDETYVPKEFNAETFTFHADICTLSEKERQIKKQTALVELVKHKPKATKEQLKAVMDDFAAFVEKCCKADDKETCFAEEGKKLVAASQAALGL
Method: The reaction was continued for 15 minutes at 37° C., and the OD340 values were read just before the addition of CoA solution and 15 minutes later when the reaction was almost complete and decrease in OD ceased. As a sample blank distilled water was substituted for the ACS solution in the reaction systems and the reaction and measurement of OD were carried out in the same way.
The concentration of FFA in a serum sample was calculated by the following equation: [formula] where:
A=0D340 of the reaction system just before the addition of CoA solution;
B=OD340 of the reaction system after 15 minutes
C=OD340 just before the addition of CoA solution in the blank run, and
D=OD340 after 15 minutes in the blank run.

[2] = biological target: T2, FFA-albumin linkage (human serum albumin) (Homo sapiens, UniProt P02768); test: Example 1: rate of ACS-coupled NADH reaction (Procedure A) on FFA sample containing albumin, with dissociating agent; settings: sample 0.5 mM FFA + 2.5% human serum albumin, 37° C.
T2 sequence (P02768 25-609): as above
Method: 100 mM Tris-HCl buffer pH 8.0 containing 2 mg/ml of Triton X-100, 2 mM 2Na-EDTA (disodium ethylenediaminetetraacetate) and 10 mM MgCl2.
40 mg of ATP disodium salt, 50 mg of potassium phosphoenolpyruvate, 20 U of myokinase (available from Boehringer Mannheim (B.M.), grade I), 15 U of pyruvate kinase (available from B.M., grade II) and 15 U of lactate dehydrogenase (available from B.M., derived from rabbit muscle) are dissolved in 1 ml of the above-mentioned buffer.
In 1 ml of the above buffer, 3 mg of NADH disodium salt is dissolved.
An ACS solution in 50% glycerine in a concentration of about 4 U/ml as prepared in Preparation 1 which is diluted with three volumes of water is used.
Aqueous 0.5 mM potassium oleate solution is used. […] The content of the microcell was then preheated at 37° C. in a spectrophotometer (Shimadzu, model UV-200) equipped with a thermostated cell holder. Thereafter 20 μl of the CoA solution was added to initiate the reaction and decrease in optical density (OD) at 340 nm was recorded with the elapse of time. From the data, the value of maximum ΔOD/min was calculated.

[3] = biological target: T2, FFA-albumin linkage (human serum albumin); test: Example 3: ACS/ACO colorimetric FFA assay (Procedure B) on potassium oleate plus human serum albumin; settings: 0.5% in assay system; sample 280 μM potassium oleate + 2.5% human serum albumin; without agent -0.016
Method: 100 mM Tris-HCl buffer pH 8.0 containing 3.2 mM Triton X-100, 2 mM disodium ethylenediaminetetraacetate and a dissociating agent such as a benzenesulfonate.
100 mM Tris-HCl buffer pH 8.0 containing 60 mM magnesium chloride.
A solution of 80 mg of ATP disodium salt and 20 U of myokinase dissolved in 40 ml of Buffer (1).
Prepared by adding 5 ml of the ACS solution in 50% glycerine with a concentration of about 4 U/ml as prepared in Preparation 1 to a solution of 25 mg of CoA in 5 ml of Buffer (2).
A suspension of ACO in 50% saturated ammonium sulfate having a concentration of about 50 U/ml and prepared as described in Preparation 2. […]
A mixture of 100 μl of a sample containing 280 μM potassium oleate and 2.5% human serum albumin, 400 μl of Enzyme Solution (1) and 100 μl of Enzyme Solution (2) was kept at 37° C. for 15 minutes. […] The reaction solution was placed into a cell having a thickness of 10 mm and the value (A) for optical density at 535 nm was measured. As a control, the sample was replaced by the same volume of water and the optical density value (B) was measured in the same way.
An aqueous potassium oleate solution which is free from albumin was separately prepared as a standard solution. This solution was substituted for the sample and the optical density value (C) was also measured in the same way. […]

[4] = dissociating agent 25 mM, control with albumin 0.019, without albumin 0.076
[5] = human serum C, solution of dissociating agent 20 mM, extraction method 560

O=C(O)CCCCCCCCCCC(=O)O [Potassium salt of decamethylenedicarboxylic acid]
FFA assayed ([1]; human serum B, solution of dissociating agent 50 mM, extraction method 370): 335 µM
maximum ΔOD340/min ([2]; dissociating agent 5 mM): 0.028 ΔOD340/min
maximum ΔOD340/min ([2]; dissociating agent 10 mM): 0.031 ΔOD340/min
maximum ΔOD340/min ([2]; dissociating agent 20 mM): 0.034 ΔOD340/min

O=C(O)CCCCCCCCCCCCCCCCC(=O)O [Dipotassium 1,16-hexadecamethylenedicarboxylate]
maximum ΔOD340/min ([2]; dissociating agent 2.5 mM): 0.032 ΔOD340/min

O=C(O)CCCCCCC(=O)O [Potassium salt of hexamethylenedicarboxylic acid, reference compound]
maximum ΔOD340/min [2, 4]: 0.015 ΔOD340/min

O=C(O)CCCCCCCCCCCCCCC(=O)O [Dipotassium 1,14-tetradecamethylenedicarboxylate]
FFA assayed ([1]; human serum B, solution of dissociating agent 10 mM, extraction method 370): 340 µM
FFA assayed ([1]; human serum C, solution of dissociating agent 10 mM, extraction method 560): 570 µM
maximum ΔOD340/min ([2]; dissociating agent 2.5 mM): 0.045 ΔOD340/min

O=C(O)CCCCCCCCCCCC(=O)O [Potassium salt of 1,11-undecamethylenedicarboxylic acid]
FFA assayed ([1]; human serum A, solution of dissociating agent 20 mM, extraction method 1475): 1500 µM
FFA assayed ([1]; human serum B, solution of dissociating agent 20 mM, extraction method 370): 340 µM
FFA assayed [1, 5]: 570 µM
maximum ΔOD340/min ([2]; dissociating agent 5 mM): 0.035 ΔOD340/min
maximum ΔOD340/min ([2]; dissociating agent 10 mM): 0.040 ΔOD340/min
maximum ΔOD340/min ([2]; dissociating agent 20 mM): 0.045 ΔOD340/min

O=C(O)CCCCCCCCCCCCC(=O)O [Dipotassium 1,12-dodecamethylenedicarboxylate]
FFA assayed [1, 5]: 575 µM
maximum ΔOD340/min ([2]; dissociating agent 2.5 mM): 0.041 ΔOD340/min
maximum ΔOD340/min ([2]; dissociating agent 10 mM): 0.048 ΔOD340/min

O=C(O)CCCCCCCCC(=O)O [Potassium salt of 1,8-octamethylenedicarboxylic acid]
maximum ΔOD340/min [2, 4]: 0.026 ΔOD340/min

Cc1ccc(S(=O)(=O)O)cc1 [Sodium p-toluenesulfonate]
FFA assayed ([1]; human serum C, solution of dissociating agent 1000 mM, extraction method 560): 585 µM
ΔOD535 [3]: 0.078
maximum ΔOD340/min ([2]; dissociating agent 100 mM): 0.030 ΔOD340/min

CCCCCc1ccc(S(=O)(=O)[O-])cc1.[Na+] [Sodium p-n-amylbenzenesulfonate]
maximum ΔOD340/min ([2]; dissociating agent 50 mM): 0.030 ΔOD340/min

O=C(O)CCCCC(=O)O [Potassium salt of tetramethylenedicarboxylic acid, reference compound]
maximum ΔOD340/min [2, 4]: 0.015 ΔOD340/min
